Here are results for one compound from patent publication US11278514B2, “Composition compromising dunnione as effective ingredient for prevention or alleviation of hair loss” (NADIANBIO LTD., priority 2018, dated 2022).

Entries after “also recorded” stand apart in the source; their conditions may differ. Read-outs that look alike come from different tables or passages of the source.

The target in test [1] is NAD(P)H: quinone oxidoreductase 1 (NQO1) (Homo sapiens, UniProt P15559). The note with it: reported to date (Pandit et al. 2015; Shen et al. 2017); cited from earlier work.
The test system of the next test is NF-κB p65. Description: Acetylation of NF-κB p65 in skin tissue (western blot), cyclophosphamide alopecia model. Format: in vivo, mice. Conditions: cyclophosphamide plus dunnione; day 18. Here is the method: (§1) In the cyclophosphamide-induced alopecia mouse model of Example 2, expression level of Sirt1 protein and acetylation reaction of the target proteins thereof, NF-κB p65 and p53, were identified on the skin tissue obtained on day 18 after hair removal.
(§2) Specifically, 10 mg of the skin tissue obtained from the animal model prepared by the method in Example 2 was homogenized by addition of a lysis solution (RIPA lysis buffer). Then, centrifugation was performed at 14,000 rpm for 10 minutes. The protein concentration in the supernatant was quantified with a bovine serum albumin (BSA) standard solution. The skin tissue protein was used in an amount of 40 μg per test solution. First, the homogenized skin tissue was mixed with a sample solution (Bio-Rad, 161-0747) and inactivated at a temperature of 95° C. for 5 minutes. Thereafter, the protein was separated by a sodium dodecyl sulfate-polyacrylamide gel electrophoresis (SDS-PAGE) method, and then transferred to a nitrocellulose membrane. Treatment with anti-Sirt1 antibody (Abcam), anti-acetyl NF-κB p65 antibody and anti-acetyl p53 antibody (Cell Signaling Technologies), and anti-β-actin antibody (Santa Cruz Biotechnology) as primary antibodies were performed, and reaction was allowed to proceed. […]
A general note: In western blotting, separated proteins are transferred to a membrane and probed.

A further test concerns intracellular NAD^+. Conditions: reported to date (Pandit et al. 2015; Shen et al. 2017); cited from earlier work.
Another test has as its system p53. Briefly: Acetylation of p53 in skin tissue (western blot), cyclophosphamide alopecia model. Format: in vivo, mice. Conditions: cyclophosphamide plus dunnione; day 18. Here is the method:
as §1, §2

Test [2] has as its system NQO1 knockout mice. Briefly: Visual observation of skin in NQO1 knockout mice treated with 6×TAC. Format: in vivo.
Excerpt: In order to identify whether a hair loss inhibitory effect of dunnione in an animal model having combined chemotherapy-induced alopecia is dependent on the enzyme NQO1, the same experiments as described in Examples 1 and 2 were repeatedly performed using NQO1 knockout mice in place of the C57BL/6 mice.
In test [3] the test system is NQO1 knockout mice. Description: Histological changes in skin (H&E) in NQO1 knockout mice treated with 6×TAC. The class given is in vivo. Conditions: day 18.
Description: The day, on which the NQO1 knockout mice were hair-removed according to Example 1, was set as day 0, and the mice in each of the experimental groups described in Example 5 were sacrificed on day 18. Subsequently, the mouse dorsal skin was dissected parallel or perpendicular to the vertebral line, and removed. The removed skin was fixed with a Bouin's solution for 12 hours, subjected to dehydration, and embedded in paraffin. Then, the resulting product was prepared into 5-μm sections. The prepared sections were subjected to hematoxylin and eosin (H&E) staining, and histological changes in the skin in each experimental group were observed.
Test [4] has as its system NQO1 knockout mice. The note with it: day 18. Here is the method: The day, on which the NQO1 knockout mice were hair-removed according to Example 1, was set as day 0, and the animals were divided into the following experimental groups and used for experiments: normal group (Control, 4 animals) in which only PBS is intraperitoneally injected on day 9; cyclophosphamide group (CYP, 6 animals) in which cyclophosphamide (150 mg/kg) is intraperitoneally injected on day 9; combination-treated group (CYP+Dunnione, 6 animals) in which dunnione is orally administered on a daily basis starting from 3 days prior to treatment with cyclophosphamide; and dunnione alone-treated group (Dunnione, 4 animals) in which only dunnione (20 mg/kg) is administered (FIG. 1).
The day, on which the NQO1 knockout mice were hair-removed according to Example 1, was set as day 0, and the mice in each of the experimental groups described in Example 3 were sacrificed on day 18. Subsequently, the mouse dorsal skin was dissected parallel or perpendicular to the vertebral line, and removed. The removed skin was fixed with a Bouin's solution for 12 hours, subjected to dehydration, and embedded in paraffin. Then, the resulting product was prepared into 5-μm sections. The prepared sections were subjected to hematoxylin and eosin (H&E) staining, and histological changes in the skin in each experimental group were observed.

A further test concerns NAD^+. Briefly: NAD+ and NADH concentrations and NAD+/NADH ratio in skin tissue, cyclophosphamide alopecia model. The class given is in vivo, mice. Conditions: cyclophosphamide plus dunnione vs cyclophosphamide. The protocol: Specifically, in order to quantify the NAD^+ and NADH concentrations in the skin tissue obtained from the animal model prepared by the method in Example 2, the skin tissue was tested with the analysis kit (E2ND-100) of BioAssay Systems according to the instruction manual, and then the NAD^+/NADH ratio was analyzed. First, 10 mg of skin tissue was collected from the animal model. Then, 100 μl of extraction solution for NAD^+ or NADH was added to the skin tissue and homogenized. Then, the homogenized skin tissue was subjected to heat treatment at 60° C. for 5 minutes. Neutralization was performed by addition of the same volume of the extraction solution, and then centrifugation was performed at 14,000 rpm for 5 minutes to obtain the supernatant. Then, a developing reagent was added to the supernatant. The NAD^+ and NADH concentrations were determined from the absorbance measured at a wavelength of 565 nm, and the NAD^+/NADH ratio was analyzed.

Chain of NAD(P)H: quinone oxidoreductase 1 (NQO1) (P15559 whole entry, species assumed): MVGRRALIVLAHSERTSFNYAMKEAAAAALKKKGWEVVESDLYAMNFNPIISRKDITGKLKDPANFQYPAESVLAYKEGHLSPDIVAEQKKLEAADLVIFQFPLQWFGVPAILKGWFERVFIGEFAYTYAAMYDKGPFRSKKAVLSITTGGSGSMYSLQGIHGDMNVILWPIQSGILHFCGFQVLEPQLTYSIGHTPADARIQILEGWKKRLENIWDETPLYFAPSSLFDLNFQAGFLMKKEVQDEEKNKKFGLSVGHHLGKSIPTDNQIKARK

As for `CC1OC2=C(C(=O)C(=O)c3ccccc32)C1(C)C` (stereo not shown) [dunnione, 2,3-dihydro-2,3,3-trimethyl-naphtho[1,2-b]furan-4,5-dione], the “activity of the enzyme NQO1” value in test [1] is reported as “increases”. In the test with NF-κB p65, the “acetylation of NF-κB p65 in skin tissue” value is on record as “suppresses”. For the same compound, the “intracellular NAD^+” value in the test on intracellular NAD^+ is reported as “increase”. For the same compound, in the test on p53, the “acetylation of p53 in skin tissue” value is recorded as “suppresses”. Also, the “hair growth, visual observation of skin” value in the test on NQO1 knockout mice [2] (6×TAC+Dunnione combination-treated group, until day 18) is “hair hardly grows until day 18 after hair removal; also recorded: progression of hair loss to a level similar to the TAC alone-treated group”; with NQO1 knockout mice [2] (dunnione alone (20 mg/kg), day 18), “hair grew overall on day 18 so that the skin is full of hair and looks black”. For the same compound, the “start of hair growth, visual observation of skin” value in the test with NQO1 knockout mice [2] (dunnione alone (20 mg/kg)) is “hair began to grow starting from day 12 after hair removal”. The “development of hair follicles and inner root sheaths (histology)” value in the test on NQO1 knockout mice [3] (6×TAC+Dunnione combination-treated group) was “the hair follicles have poorly developed or the inner root sheaths have insufficiently developed; also recorded: falling-off of hair follicles and inner root sheaths in the skin tissue progresses”; with NQO1 knockout mice [3] (dunnione alone) it was “the hair follicles and inner root sheaths have well developed overall”; in the test with NQO1 knockout mice [4] (CYP+Dun combination-treated group), “the hair follicles have poorly developed or the inner root sheaths have insufficiently developed; also recorded: falling-off of hair follicles and inner root sheaths in the skin tissue progresses”; with NQO1 knockout mice [4] (dunnione alone), “the hair follicles and inner root sheaths have well developed overall”. Further, in the test with NAD^+ (day 18), the “NAD^+/NADH ratio in skin tissue” value is given as “increases”. Besides, the “NAD^+ concentration in skin tissue” value in the test on NAD^+ (day 18 after hair removal) is given as “increases”.
